According to patent US20210283139A1, “BIFUNCTIONAL MOLECULES FOR TARGETING UCHL5” (AMPHISTA THERAPEUTICS LTD, priority 2018, published 2021):
Values belong to the compound of their own block, whether it stands above or below them.

Key:
Type in all cases: cell-based
[1] = system: MV4-11 cells; test: Anti-proliferative effect, CellTiter-Glo assay; settings: MV4-11, CellTiter-Glo, 72 h incubation, 5 μM and below
Description: The anti-proliferative effects of representative compounds were measured using the CellTiter-Glo assay (Promega). MV4-11 cells were incubated in a sterile, white, clear-bottomed 384-well cell-culture microplate (Greiner Bio-one), at 2× concentration in RPMI media and a volume of 25 μl. The next day, test compounds were serially diluted in RPMI media to 2× concentration, then added to cells to make a final volume of 50 μl. After a 72 h incubation 25 μl of CellTiter-Glo reagent was added to each well. Following 15 minute incubation the luminescence signal was read on a Pherastar FS. The final concentration of assay components are as follows: 3×10^5 cells/mL, 0.05% DMSO, 5 μM and below compound. Data (FIG. 11) was processed and dose-response curves generated using Prism 8 (Graphpad).

[2] = target: T1, Brd4 (L) (Homo sapiens, UniProt O60885); test: Concentration-dependent BET degradation, immunoblot, HeLa cells; settings: 6 h treatment, 1 nM-10 μM
T1 construct: endogenous in cells; host or cells: HEK293, HeLa
Description: (§1) Cell culture. HeLa (CCL-2) and HEK293 (CRL-1573) cells were purchased from ATCC and cultured in DMEM medium (Gibco) supplemented with 10% FBS, 100 μg/mL penicillin/streptomycin and L-glutamine. Cells were grown at 37° C. and 5% CO2, and were kept no longer than 30 passages. All cell lines were routinely tested for mycoplasma contamination using MycoAlert kit from Lonza.
(§2) Immunoblotting. proteins were separated by SDS-PAGE on NuPage 4-12% Bis-Tris gels, followed by transfer to Amersham Protran 0.45 NC nitrocellulose membrane (GE Healthcare) using wet transfer. Membranes were blocked using 5% w/v milk in Tris-buffered saline (TBS) with 0.1% Tween-20. Blots were probed (overnight at 4° C.) using anti-Brd2 (Abcam ab139690, 1:2,000 dilution), anti-Brd3 (Abcam ab50818, 1:500 dilution), and anti-Brd4 (Abcam ab128874, 1:1,000 dilution) primary antibodies, as appropriate. The next day, blots were washed with TBST and incubated (1 hr at RT) with anti-Tubulin hFAB-rhodamine (BioRad, 12004166) primary antibody, and either anti-rabbit IRDye 800CW (Licor 1:10,000 dilution) or anti-mouse IRDye 800CW (Licor 1:10,000 dilution) secondary antibody. Blots were developed using a Bio-Rad ChemiDoc MP Imaging System, and band quantification was performed using Image Studio software (LiCor). Band intensities were normalized to the tubulin loading control and reported as % of the average 0.1% DMSO vehicle intensity. Degradation data was plotted and analysed using Prism (Graphpad, version 8).
(§3) HeLa (5×10^5) and HEK293 (1×10^6) cells were seeded in standard 6-well plates (2 mL medium) overnight before treatment with compounds at the desired concentration (1 nM-10 μM), with a final DMSO concentration of 0.1% v/v. After 6 h treatment time, cells were washed with DPBS (Gibco) and lysed using 85 μL RIPA buffer (Sigma-Aldrich) supplemented with cOmplete Mini EDTA-free protease inhibitor cocktail (Roche) and benzonase. Lysates were clarified by centrifugation (20,000g, 10 min, 4° C.) and the total protein content of the supernatant was quantified using a Bradford colorimetric assay. Samples were prepared using equal amounts of total protein and LDS sample buffer (Invitrogen.
(§4) Representative blots in FIG. 3 show depletion of Brd2, Brd3 and Brd4 protein levels following treatment with increasing concentrations of representative compounds. Band intensities were normalized to the β-tubulin loading control and reported as % of the average 0.1% DMSO vehicle intensity, with each point representing mean±SEM of two independent experiments (n=2). Degradation data was plotted and analysed using Prism (Graphpad, version 8)

[3] = target: T2, Brd4 (S) (Homo sapiens, UniProt O60885); test: as above; settings: 6 h treatment, 1 nM-10 μM
T2 construct: endogenous in cells; host or cells: HEK293, HeLa
Description: as §1, §2, §3, §4

[4] = target: T1, Brd4 (L); test: Time-dependent BET degradation, immunoblot, HeLa cells; parameters: dose or concentration left out as unconfirmed; settings: timecourse 0-8 h
Description: as §1, §2
as §3, with “(3×10^5)” for “(5×10^5)”, “(0.5×10^6)” for “(1×10^6)”, “1 μM concentration,” for “the desired concentration (1 nM-10 μM),”, “incubation for the desired time (0-8 h),” for “6 h treatment time,”, “(20,000 g,” for “(20,000g,”, “(Invitrogen).” for “(Invitrogen.”
as §4, with “FIG. 4” for “FIG. 3”, “following 1 μM” for “following”, “treatment at various time points” for “treatment”, “with” for “with increasing concentrations of”, “version 8).” for “version 8)”
(§5) T½ (h) is the time required to deplete 50% of the protein relative to DMSO

[5] = target: T2, Brd4 (S); test: as above; parameters: dose or concentration left out as unconfirmed; settings: timecourse 0-8 h
Description: as §1, §2
as §3, with “(3×10^5)” for “(5×10^5)”, “(0.5×10^6)” for “(1×10^6)”, “1 μM concentration,” for “the desired concentration (1 nM-10 μM),”, “incubation for the desired time (0-8 h),” for “6 h treatment time,”, “(20,000 g,” for “(20,000g,”, “(Invitrogen).” for “(Invitrogen.”
as §4, with “FIG. 4” for “FIG. 3”, “following 1 μM” for “following”, “treatment at various time points” for “treatment”, “with” for “with increasing concentrations of”, “version 8).” for “version 8)”
as §5

[6] = target: T3, Brd3 (Homo sapiens, UniProt Q15059); test: Time-dependent BET degradation, immunoblot, HEK293 cells; parameters: endogenous in cells; host or cells: HEK293; settings: HEK293, Brd3, 1 μM, timecourse 0-8 h
T3 sequence (Q15059 whole entry): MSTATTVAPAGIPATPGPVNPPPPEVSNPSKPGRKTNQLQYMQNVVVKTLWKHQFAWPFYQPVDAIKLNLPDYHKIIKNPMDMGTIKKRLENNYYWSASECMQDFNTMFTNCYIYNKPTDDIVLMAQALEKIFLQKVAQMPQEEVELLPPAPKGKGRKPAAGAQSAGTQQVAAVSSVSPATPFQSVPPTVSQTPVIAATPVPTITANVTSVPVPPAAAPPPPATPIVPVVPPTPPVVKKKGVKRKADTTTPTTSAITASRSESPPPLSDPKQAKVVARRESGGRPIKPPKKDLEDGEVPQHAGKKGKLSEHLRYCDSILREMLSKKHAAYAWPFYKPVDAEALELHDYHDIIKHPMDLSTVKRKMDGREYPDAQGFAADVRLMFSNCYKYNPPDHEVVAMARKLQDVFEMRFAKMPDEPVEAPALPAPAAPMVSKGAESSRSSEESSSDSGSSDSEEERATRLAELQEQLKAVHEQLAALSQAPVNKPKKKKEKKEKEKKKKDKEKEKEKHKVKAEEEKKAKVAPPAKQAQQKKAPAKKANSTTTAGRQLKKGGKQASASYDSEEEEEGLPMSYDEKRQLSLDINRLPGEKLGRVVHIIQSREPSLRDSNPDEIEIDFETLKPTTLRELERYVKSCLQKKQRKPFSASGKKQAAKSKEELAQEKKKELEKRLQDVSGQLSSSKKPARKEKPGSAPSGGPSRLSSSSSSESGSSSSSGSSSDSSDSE
Description: as §1, §2
as §3, with “(3×10^5)” for “(5×10^5)”, “(0.5×10^6)” for “(1×10^6)”, “1 μM concentration,” for “the desired concentration (1 nM-10 μM),”, “incubation for the desired time (0-8 h),” for “6 h treatment time,”, “(20,000 g,” for “(20,000g,”, “(Invitrogen).” for “(Invitrogen.”
as §4, with “FIG. 4” for “FIG. 3”, “following 1 μM” for “following”, “treatment at various time points” for “treatment”, “with” for “with increasing concentrations of”, “version 8).” for “version 8)”
as §5

[7] = target: T4, Brd2 (Homo sapiens, UniProt P25440); test: as above; parameters: endogenous in cells; host or cells: HEK293; settings: HEK293, Brd2, 1 μM, timecourse 0-8 h
T4 sequence (P25440 whole entry): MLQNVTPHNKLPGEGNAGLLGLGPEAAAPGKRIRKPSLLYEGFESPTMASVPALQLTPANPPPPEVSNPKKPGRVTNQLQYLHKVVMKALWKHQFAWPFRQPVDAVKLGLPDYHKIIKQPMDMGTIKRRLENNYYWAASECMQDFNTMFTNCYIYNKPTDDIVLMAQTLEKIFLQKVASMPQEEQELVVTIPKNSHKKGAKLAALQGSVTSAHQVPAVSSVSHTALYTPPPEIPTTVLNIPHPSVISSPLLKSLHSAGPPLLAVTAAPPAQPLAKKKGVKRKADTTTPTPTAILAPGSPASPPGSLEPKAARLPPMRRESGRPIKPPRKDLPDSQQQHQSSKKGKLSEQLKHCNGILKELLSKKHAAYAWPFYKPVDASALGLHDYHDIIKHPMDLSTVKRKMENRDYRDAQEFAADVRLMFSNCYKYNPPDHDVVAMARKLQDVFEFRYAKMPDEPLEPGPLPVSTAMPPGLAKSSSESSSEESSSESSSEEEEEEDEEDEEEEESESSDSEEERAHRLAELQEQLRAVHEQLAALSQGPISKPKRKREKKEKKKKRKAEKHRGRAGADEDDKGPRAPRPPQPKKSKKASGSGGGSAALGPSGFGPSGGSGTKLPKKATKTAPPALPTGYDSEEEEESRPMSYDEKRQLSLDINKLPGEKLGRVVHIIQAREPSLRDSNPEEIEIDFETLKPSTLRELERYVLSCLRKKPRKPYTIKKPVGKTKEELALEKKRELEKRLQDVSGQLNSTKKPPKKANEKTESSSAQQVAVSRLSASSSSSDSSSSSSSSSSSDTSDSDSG
Description: as §1, §2
as §3, with “(3×10^5)” for “(5×10^5)”, “(0.5×10^6)” for “(1×10^6)”, “1 μM concentration,” for “the desired concentration (1 nM-10 μM),”, “incubation for the desired time (0-8 h),” for “6 h treatment time,”, “(20,000 g,” for “(20,000g,”, “(Invitrogen).” for “(Invitrogen.”
as §4, with “FIG. 4” for “FIG. 3”, “following 1 μM” for “following”, “treatment at various time points” for “treatment”, “with” for “with increasing concentrations of”, “version 8).” for “version 8)”
as §5

[8] = target: T1, Brd4 (L); test: Concentration-dependent BET degradation, immunoblot, HEK293 cells; settings: 6 h treatment, 1 nM-10 μM
Description: as §1, §2, §3, §4

[9] = target: T2, Brd4 (S); test: as above; settings: 6 h treatment, 1 nM-10 μM
Description: as §1, §2, §3, §4

[10] = target: T3, Brd3; test: as above; parameters: endogenous in cells; host or cells: HEK293; settings: HEK293, Brd3, 6 h treatment, 1 nM-10 μM
Description: as §1, §2, §3, §4

[11] = target: T4, Brd2; test: as above; parameters: endogenous in cells; host or cells: HEK293; settings: HEK293, Brd2, 6 h treatment, 1 nM-10 μM
Description: as §1, §2, §3, §4

[12] = target: T3, Brd3; test: Time-dependent BET degradation, immunoblot, HeLa cells; parameters: endogenous in cells; host or cells: HeLa; settings: Brd3, 1 μM, timecourse 0-8 h
Description: as §1, §2
as §3, with “(3×10^5)” for “(5×10^5)”, “(0.5×10^6)” for “(1×10^6)”, “1 μM concentration,” for “the desired concentration (1 nM-10 μM),”, “incubation for the desired time (0-8 h),” for “6 h treatment time,”, “(20,000 g,” for “(20,000g,”, “(Invitrogen).” for “(Invitrogen.”
as §4, with “FIG. 4” for “FIG. 3”, “following 1 μM” for “following”, “treatment at various time points” for “treatment”, “with” for “with increasing concentrations of”, “version 8).” for “version 8)”
as §5

[13] = target: T4, Brd2; test: as above; parameters: endogenous in cells; host or cells: HeLa; settings: Brd2, 1 μM, timecourse 0-8 h
Description: as §1, §2
as §3, with “(3×10^5)” for “(5×10^5)”, “(0.5×10^6)” for “(1×10^6)”, “1 μM concentration,” for “the desired concentration (1 nM-10 μM),”, “incubation for the desired time (0-8 h),” for “6 h treatment time,”, “(20,000 g,” for “(20,000g,”, “(Invitrogen).” for “(Invitrogen.”
as §4, with “FIG. 4” for “FIG. 3”, “following 1 μM” for “following”, “treatment at various time points” for “treatment”, “with” for “with increasing concentrations of”, “version 8).” for “version 8)”
as §5

[14] = target: T3, Brd3; test: Concentration-dependent BET degradation, immunoblot, HeLa cells; parameters: endogenous in cells; host or cells: HeLa; settings: Brd3, 6 h treatment, 1 nM-10 μM
Description: as §1, §2, §3, §4

[15] = target: T4, Brd2; test: as above; parameters: endogenous in cells; host or cells: HeLa; settings: Brd2, 6 h treatment, 1 nM-10 μM
Description: as §1, §2, §3, §4

[16] = target: T1, Brd4 (L); test: Time-dependent BET degradation, immunoblot, HEK293 cells; parameters: dose or concentration left out as unconfirmed; settings: timecourse 0-8 h
Description: as §1, §2
as §3, with “(3×10^5)” for “(5×10^5)”, “(0.5×10^6)” for “(1×10^6)”, “1 μM concentration,” for “the desired concentration (1 nM-10 μM),”, “incubation for the desired time (0-8 h),” for “6 h treatment time,”, “(20,000 g,” for “(20,000g,”, “(Invitrogen).” for “(Invitrogen.”
as §4, with “FIG. 4” for “FIG. 3”, “following 1 μM” for “following”, “treatment at various time points” for “treatment”, “with” for “with increasing concentrations of”, “version 8).” for “version 8)”
as §5

[17] = target: T2, Brd4 (S); test: as above; parameters: dose or concentration left out as unconfirmed; settings: timecourse 0-8 h
Description: as §1, §2
as §3, with “(3×10^5)” for “(5×10^5)”, “(0.5×10^6)” for “(1×10^6)”, “1 μM concentration,” for “the desired concentration (1 nM-10 μM),”, “incubation for the desired time (0-8 h),” for “6 h treatment time,”, “(20,000 g,” for “(20,000g,”, “(Invitrogen).” for “(Invitrogen.”
as §4, with “FIG. 4” for “FIG. 3”, “following 1 μM” for “following”, “treatment at various time points” for “treatment”, “with” for “with increasing concentrations of”, “version 8).” for “version 8)”
as §5

[18] = read-out: Dmax (%) maximum degradation observed

Structure (SMILES): CCC[C@H](NC(=O)/C(C#N)=C/c1cccc(Br)n1)c1ccccc1 [Degrasyn, reference compound]
cytotoxicity profile (anti-proliferative effect) [1]: significantly less cytotoxicity

DC50 [2]: 51 to 500 nM
Dmax [2, 18]: 26 to 50%
DC50 [3]: ≤ 50 nM
Dmax [3, 18]: ≥ 71%
Dmax [4]: 100%
Dmax [5]: 100%
Dmax at 1 µM [6]: 100%
Dmax at 1 µM [7]: 100%
DC50 [8]: ≤ 50 nM
Dmax [8, 18]: ≥ 71%
DC50 [9]: ≤ 50 nM
Dmax [9, 18]: ≥ 71%
DC50 [10]: ≤ 50 nM
Dmax [10, 18]: ≥ 71%
DC50 [11]: ≤ 50 nM
Dmax [11, 18]: 51 to 70%
Dmax at 1 µM [12]: 100%
Dmax at 1 µM [13]: 100%
DC50 [14]: ≤ 50 nM
Dmax [14, 18]: 26 to 50%
DC50 [15]: 51 to 500 nM
Dmax [15, 18]: ≤ 25%
Dmax [16]: 100%
Dmax [17]: 100%
Structure (SMILES): CCCC(NC(=O)/C(C#N)=C/c1cccc(Br)n1)c1ccc(OCC=NOCC(=O)NCCOCCNC(=O)c2ccc3c(c2)[C@H](Nc2ccc(Cl)cc2)C[C@H](C)N3C(C)=O)cc1 (stereo partly shown) [Example 05IB1]
